# Assay results taken from US20110065715A1, “Nogo Receptor Binding Small Molecules to Promote Axonal Growth” (Yale University, priority 2007, published 2011).
# Entries after “also recorded” stand apart in the source; their conditions may differ. Where two headings read alike, the source gives them in different places.
# Columns and labels:
# [1] = tested on: embryonic day 13 or 14 chick DRG neurons; assay: Neurite outgrowth assay, E13/E14 chick DRG neurons; type: cell-based, chicken; conditions: 20 μM
# Experimental: To test the ability of the “hit” compounds to promote neurite outgrowth, a neurite outgrowth assay was performed using each of these compounds. Dorsal root ganglia (DRG) were removed from chicken embryos at embryonic day 13 or 14, dissociated by trituration after 30 min incubation in 0.5% collagenase, and plated on laminin-coated 96-well tissue culture plates in DMEM with 10% fetal bovine serum containing 20 μM of the test compound. After two to four hours of incubation, the cells were fixed in 4% formaldehyde in phosphate buffered saline (PBS), washed in PBS, and blocked for 1 hour in PBS with 0.1% triton X-100 and 10% goat serum. The cells were incubated in rabbit anti-beta-3-tubulin (1:500) in PBS overnight and then washed 3 times with PBS. The cells were then incubated in Alexa-fluor 488 goat anti-rabbit IgG (1:500) for 6 hrs, washed with PBS, and imaged at 10× with an ImagExpress automated microscope (Molecular Devices, Inc.). Neurite outgrowth was measured with AcuityExpress software (Molecular Devices, Inc.).
# [2] = tested on: postnatal day 15 (P15) NgR1 knockout mouse DRG neurons; assay: Neurite outgrowth, P15 NgR1 knockout mouse DRG neurons; type: cell-based; conditions: 24 hours
# Experimental: (§1) However, the inhibition of neurite outgrowth by the compound S is believed to be independent of its interaction with the Nogo receptor-Nogo ligand complex. Dorsal root ganglia (DRG) were removed from wild type or NgR1 knockout mouse pups at postnatal day 15, dissociated by trituration after 30 min incubation in 0.5% collagenase, plated on laminin-coated 96-well tissue culture plates in DMEM with 10% fetal bovine serum and B27. After 24 hours, cells were fixed in 4% formaldehyde in phosphate buffered saline (PBS), washed in PBS, and blocked for 1 hour in PBS with 0.1% triton X-100 and 10% goat serum. The cells were then incubated in rabbit anti-beta-3-tubulin (1:500) in PBS overnight. After washing 3 times, the cells were incubated in Alexa-fluor 488 goat anti-rabbit IgG (1:500) for 6 hrs, washed with PBS, and imaged at 10× with an ImagExpress automated microscope (Molecular Devices, Inc.). Neurite outgrowth was measured with AcuityExpress software (Molecular Devices, Inc.).
# [3] = tested on: Nogo receptor:Nogo ligand (Nogo 66) interaction; assay: DELFIA assay of Fc-NgR:Ng66 interaction; type: binding
# Experimental: ELISA and DELFIA assays were then performed to evaluate the ability of the small molecules that were identified as “hits” in the AlphaScreens to inhibit the interaction of NgR and Nogo ligand. In the DELFIA Assay, 96 well streptavidin coated plates were blocked overnight with PBS and 10 mg/ml bovine serum albumin (BSA) (200 μl). The wells were then coated for 1.5 hours with sonicated HBH (Hanks Balanced Salt Solution/0.1 M HEPES/1 mg/ml BSA) containing Nogo 66 (B66) (0.5 μl of 10 mM/10 ml HBH) (50 μl) and then washed 4 times with 200 μl of HBH. The solution containing the inhibitor compound (50 μl in HBH) was added along with 1% FcNgR solution in HBH (50 μl), and the solution was incubated for 2 hours. The wells were washed 5 times with HBH. Alkaline phosphatase (AP) conjugated mouse anti-rat antibody (1:2500) was added and the wells were then washed 5 times with DELFIA wash buffer. The Europium (Eu) anti-mouse antibody was then added in Perlin Elmer Assay, buffer (100 μg/ml) (150 μl) and the wells were again washed 5 times with DELFIA wash buffer. The enhancer solution was added (100 μl) and the plate was read with the Perkin Elmer Victor 5 instrument 15 minutes later. (FIG. 10B) The results from the DELFIA assay indicate that compounds HTS08871, KM08071, and 503749, as well as the positive control, NEP33, inhibit the Nogo receptor:Nogo ligand (Nogo 66) interaction. (FIGS. 10D and 11A-C).
# [4] = tested on: postnatal day 15 (P15) wild type mouse DRG neurons; assay: Neurite outgrowth, P15 wild type mouse DRG neurons; type: cell-based; conditions: 24 hours
# Experimental: as §1
smiles,measurement,setting,value
"N#Cc1ccc(CN2C(=O)CSC2=S)cc1 [S, 4-[(4-oxo-2-thioxo-1,3-thiazolan-3-yl)methyl]benzonitrile]",neurite outgrowth compared to the DMSO control,"[1]; E13 or E14 chick DRG, two to four hours",inhibited neurite outgrowth
same,"basal neurite outgrowth, E14 chick DRG neurons",[1]; E14,no basal neurite outgrowth
same,"neurite outgrowth, NgR1 knockout mice",[2],inhibits neurite outgrowth; also recorded: inhibitory effect
same,"inhibition of Nogo receptor:Nogo 66 interaction signal, DELFIA",[3],dose dependent signal inhibition
same,"inhibition of Nogo receptor:Nogo 66 interaction signal, DELFIA",[3]; listed as 503749,inhibit
same,"neurite outgrowth, wild type mice",[4],inhibits neurite outgrowth; also recorded: inhibitory effect
